Source: US20240417405A1, “Substituted Spiro Derivatives” (Janssen Pharmaceutica NV, priority 2021, published 2024)

Experiments:
[1] = target: T1, menin/MLL (terbium chelate-labeled menin, FITC-MBM1 peptide) (Homo sapiens, UniProt O00255, T541A); assay: Menin/MLL homogenous time-resolved fluorescence (HTRF) assay; type: binding; details: 30 min incubation
T1 construct: Menin (a.a 1-610-6xhis tag)
T1 sequence (O00255 with tags, fused parts or gaps T541A): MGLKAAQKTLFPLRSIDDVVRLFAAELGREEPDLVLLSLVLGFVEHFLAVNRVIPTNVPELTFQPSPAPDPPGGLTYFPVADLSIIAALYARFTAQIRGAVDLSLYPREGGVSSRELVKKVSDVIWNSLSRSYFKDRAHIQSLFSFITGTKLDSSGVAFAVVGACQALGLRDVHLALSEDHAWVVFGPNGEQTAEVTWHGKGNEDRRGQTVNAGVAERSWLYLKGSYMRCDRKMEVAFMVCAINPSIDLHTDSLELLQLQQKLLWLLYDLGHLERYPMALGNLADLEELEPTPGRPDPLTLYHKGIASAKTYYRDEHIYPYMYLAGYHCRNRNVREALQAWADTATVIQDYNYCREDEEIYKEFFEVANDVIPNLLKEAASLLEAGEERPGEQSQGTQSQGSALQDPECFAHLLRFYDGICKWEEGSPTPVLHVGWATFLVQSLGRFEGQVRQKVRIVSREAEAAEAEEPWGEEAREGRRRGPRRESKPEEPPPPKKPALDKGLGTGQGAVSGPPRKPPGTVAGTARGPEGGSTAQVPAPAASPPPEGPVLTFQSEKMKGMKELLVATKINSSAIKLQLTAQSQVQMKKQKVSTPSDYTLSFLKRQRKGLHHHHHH
Outline: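 Tb-cryptate menin (1-610, 6xHis) 200 pM + cmpd, 30 min RT; + FITC-MBM1 75 nM, 15 min RT. 40 mM Tris pH 7.5, 50 mM NaCl, 1 mM DTT, 0.05% Pluronic F-127, 0.5% DMSO. HTRF 520/490; 11-pt 4-fold from 10 μM; IC50 fit.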

MOLM14 cells = assay: Proliferation assay, spheroid-like growth, MOLM14 (MLL-AF9 rearranged); type: cell-based, human; details: Homo sapiens, MOLM-14, 192 h, 8 days, confluence as measure of spheroid size, read-out: spheroid assay_OneTime MOLM14 IC50
Outline: (§1)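 200 MOLM14 or 300 KO-52 cells/well, ultra-low attachment, compound dilutions, DMSO 0.3%; 8 d, 37 °C, 5% CO2. Read: live-cell imaging confluence (spheroid size) day 8. Absolute IC50, min 0%/max 100% fixed, variable slope.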

KO-52 cells = assay: Proliferation assay, spheroid-like growth, KO-52 (MLL wildtype control cell line); type: cell-based, human; details: Homo sapiens, 192 h, KO-52 control cells, 8 days, confluence as measure of spheroid size; read-out: spheroid assay_OneTime KO-52 IC50
Outline: as §1

SMILES	IC50 [1] [µM]	IC50 (MOLM14 cells) [µM]	IC50 (KO-52 cells) [µM]
CC(C)[C@@H]([C@H]1C[C@@H](N2CCC(C(=O)N(C)C)CC2)C1)N1CC2(CCN(c3ncnnc3Oc3ccc(F)cc3-c3ncncc3C3CC3)C2)C1 (single isomer, unassigned) [Compound 100]	0.0001	0.033	9.81
CC(C)[C@@H]([C@H]1C[C@@H](N2CC3(CCO3)C2)C1)N1CC2(CCN(c3ncnnc3Oc3ccc(F)cc3-c3cnncc3C3CC3)C2)C1 (single isomer, unassigned) [Compound 102]	0.0001	0.012	8.47
CC(C)[C@@H]([C@H]1C[C@H](N2CC3(CCO3)C2)C1)N1CC2(CCN(c3ncnnc3Oc3ccc(F)cc3-c3cnncc3C3CC3)C2)C1 (single isomer, unassigned) [Compound 103]	0.0001	0.1	12.2
CC(=O)N1CCN([C@H]2C[C@@H]([C@H](C(C)C)N3CC4(CCN(c5ncnnc5Oc5ccc(F)cc5-c5cnncc5C5CC5)C4)C3)C2)CC1 (single isomer, unassigned) [Compound 104]	0.0002	0.073	11.8
CC(C)[C@@H]([C@H]1C[C@@H](N2CC3(COC3)C2)C1)N1CC2(CCN(c3ncnnc3Oc3ccc(F)cc3-c3cnncc3C3CC3)C2)C1 (single isomer, unassigned) [Compound 106]	0.0001	0.011	4.99
CC(C)[C@@H]([C@H]1C[C@H](N2CC3(COC3)C2)C1)N1CC2(CCN(c3ncnnc3Oc3ccc(F)cc3-c3cnncc3C3CC3)C2)C1 (single isomer, unassigned) [Compound 107]	0.0001	0.076	> 15
CO[C@H]1CCN([C@H]2C[C@@H]([C@H](C(C)C)N3CC4(CCN(c5ncnnc5Oc5ccc(F)cc5-c5cnncc5C5CC5)C4)C3)C2)C1 (single isomer, unassigned) [Compound 108]	0.0002	0.001	2.65
CC(C)[C@@H]([C@H]1C[C@@H](N2CC[C@@H](C(=O)N(C)C)C2)C1)N1CC2(CCN(c3ncnnc3Oc3ccc(F)cc3-c3cnncc3C3CC3)C2)C1 (single isomer, unassigned) [Compound 110]	0.0001	0.012	6.84
CC(C)[C@@H]([C@H]1C[C@H](N2CC[C@@H](C(=O)N(C)C)C2)C1)N1CC2(CCN(c3ncnnc3Oc3ccc(F)cc3-c3cnncc3C3CC3)C2)C1 (single isomer, unassigned) [Compound 111]	0.0002	0.12	> 15
CC(C)[C@@H]([C@H]1C[C@@H](N2CC[C@](C)(O)C2)C1)N1CC2(CCN(c3ncnnc3Oc3ccc(F)cc3-c3cnncc3C3CC3)C2)C1 (single isomer, unassigned) [Compound 112]	0.0001	0.006	10.1
CC(C)[C@@H]([C@H]1C[C@H](N2CC[C@](C)(O)C2)C1)N1CC2(CCN(c3ncnnc3Oc3ccc(F)cc3-c3cnncc3C3CC3)C2)C1 (single isomer, unassigned) [Compound 113]	0.0002	0.2	> 15
CC(C)[C@@H]([C@H]1C[C@@H](N2CC[C@@](C)(O)C2)C1)N1CC2(CCN(c3ncnnc3Oc3ccc(F)cc3-c3cnncc3C3CC3)C2)C1 (single isomer, unassigned) [Compound 114]	0.0001	0.008	14.2
CC(C)[C@@H]([C@H]1C[C@H](N2CC[C@@](C)(O)C2)C1)N1CC2(CCN(c3ncnnc3Oc3ccc(F)cc3-c3cnncc3C3CC3)C2)C1 (single isomer, unassigned) [Compound 115]	0.0002	0.43	> 15
CC(C)[C@@H]([C@H]1C[C@@H](N2CC[C@H](C(=O)N(C)C)C2)C1)N1CC2(CCN(c3ncnnc3Oc3ccc(F)cc3-c3cnncc3C3CC3)C2)C1 (single isomer, unassigned) [Compound 116]	0.0001	0.007	8.89
CC(C)[C@H]([C@H]1C[C@H](N2CC3(CCO3)C2)C1)N1CC2(CCN(c3ncnnc3Oc3ccc(F)cc3-c3cncnc3C3CC3)C2)C1 (single isomer, unassigned) [Compound 146]	0.0002	0.16	6.6
CC(C)[C@H]([C@H]1C[C@@H](NC2CC2)C1)N1CC2(CCN(c3ncnnc3Oc3ccc(F)cc3-c3ncccc3C3CC3)C2)C1 (single isomer, unassigned) [Compound 148]	0.0002	0.003	0.61
CC(C)[C@H]([C@H]1C[C@@H](N2CC3(COC3)C2)C1)N1CC2(CCN(c3ncnnc3Oc3ccc(F)cc3-c3ncccc3C3CC3)C2)C1 (single isomer, unassigned) [Compound 151]	0.0001	0.004	2.03
CC(C)[C@H](C1CC2(CCN2CC2COC2)C1)N1CC2(CCN(c3ncnnc3Oc3ccc(F)cc3-c3cncnc3C3CC3)C2)C1 (single isomer, unassigned) [Compound 155]	0.0023	0.57	> 15
CC(C)[C@@H](C1CC2(C1)CN(CC1COC1)C2)N1CC2(CCN(c3ncnnc3Oc3ccc(F)cc3-c3cncnc3C3CC3)C2)C1 (single isomer, unassigned) [Compound 157]	0.0002	0.12	7.77

More lines, in order of falling IC50 [1], values ahead:

IC50 [1] [µM]	IC50 (MOLM14 cells) [µM]	SMILES	IC50 (KO-52 cells) [µM]
0.0053	0.73	CC(C)[C@@H]([C@H]1C[C@@H](N(C)C)C1)N1CC2(CCN(c3ncnnc3Oc3ccc(F)cc3-c3ncccc3C3CC3)C2)C1 (single isomer, unassigned) [Compound 153]	4.83
0.0004	0.23	CC(C)[C@H](C1CC2(C1)CN(CC1COC1)C2)N1CC2(CCN(c3ncnnc3Oc3ccc(F)cc3-c3cncnc3C3CC3)C2)C1 (single isomer, unassigned) [Compound 154]	9.08
0.0002	0.006	CC(C)[C@H]([C@H]1C[C@@H](N2CC3(CCO3)C2)C1)N1CC2(CCN(c3ncnnc3Oc3ccc(F)cc3-c3cncnc3C3CC3)C2)C1 (single isomer, unassigned) [Compound 145]	3.58
0.0002	0.049	CC(C)[C@H]([C@H]1C[C@H](N2CC3(COC3)C2)C1)N1CC2(CCN(c3ncnnc3Oc3ccc(F)cc3-c3ncccc3C3CC3)C2)C1 (single isomer, unassigned) [Compound 152]	3.96
0.0001	0.01	CC(C)[C@@H]([C@H]1C[C@@H](N2CC3(CCO3)C2)C1)N1CC2(CCN(c3ncnnc3Oc3ccc(F)cc3-c3ncncc3C3CC3)C2)C1 (single isomer, unassigned) [Compound 101]	1.07
0.0001	0.053	CO[C@H]1CCN([C@H]2C[C@H]([C@H](C(C)C)N3CC4(CCN(c5ncnnc5Oc5ccc(F)cc5-c5cnncc5C5CC5)C4)C3)C2)C1 (single isomer, unassigned) [Compound 109]	> 15
0.0001	0.17	CC(C)[C@@H]([C@H]1C[C@H](N2CC[C@H](C(=O)N(C)C)C2)C1)N1CC2(CCN(c3ncnnc3Oc3ccc(F)cc3-c3cnncc3C3CC3)C2)C1 (single isomer, unassigned) [Compound 117]	> 15
0.0001	0.004	CC(C)[C@H]([C@H]1C[C@@H](N(C)C)C1)N1CC2(CCN(c3ncnnc3Oc3ccc(F)cc3-c3ncccc3C3CC3)C2)C1 (single isomer, unassigned) [Compound 147]	0.39
0.0001	< 0.002	CC(C)[C@H]([C@H]1C[C@@H](N2C[C@H]3COC[C@H]3C2)C1)N1CC2(CCN(c3ncnnc3Oc3ccc(F)cc3-c3ncccc3C3CC3)C2)C1 (single isomer, unassigned) [Compound 149]	0.51
0.0001	0.12	CC(C)[C@H]([C@H]1C[C@H](N2C[C@H]3COC[C@H]3C2)C1)N1CC2(CCN(c3ncnnc3Oc3ccc(F)cc3-c3ncccc3C3CC3)C2)C1 (single isomer, unassigned) [Compound 150]	3.14
